Assay results from the supplement of paper PMC10307832.

Tests used:
Test in all cases: relative viability (nuclei count vs DMSO), 5 days (fraction); higher = more cells survive
Etoposide + AZD7762 = compound: COc1cc([C@@H]2c3cc4c(cc3[C@@H](O[C@@H]3O[C@@H]5CO[C@@H](C)O[C@H]5[C@H](O)[C@H]3O)[C@H]3COC(=O)[C@H]23)OCO4)cc(OC)c1O [Etoposide] + NC(=O)Nc1cc(-c2cccc(F)c2)sc1C(=O)N[C@H]1CCCNC1 [AZD7762] (partner 0.2 µM)
In short: (§1)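 Relative viability is defined as nuclei in treated wells over nuclei in vehicle wells. Duplicate plates were run and medians reported. Lung cancer cell lines in 1536-well plates were dosed by pin tool one day after seeding, with one drug or with a fixed anchor-drug dose plus five library-drug doses (not always all listed) in √10 steps, and nuclei were counted after 5 days.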

Bleomycin + Pictilisib = compound: CC1=C(N=C(N=C1N)[C@H](CC(=O)N)NC[C@@H](C(=O)N)N)C(=O)N[C@@H]([C@H](C2=CN=CN2)OC3C(C(C(C(O3)CO)O)O)OC4C(C(C(C(O4)CO)O)OC(=O)N)O)C(=O)N[C@H](C)[C@H]([C@H](C)C(=O)N[C@@H]([C@@H](C)O)C(=O)NCCC5=NC(=CS5)C6=NC(=CS6)C(=O)NCCC[S+](C)C)O [Bleomycin] + CS(=O)(=O)N1CCN(Cc2cc3nc(-c4cccc5[nH]ncc45)nc(N4CCOCC4)c3s2)CC1 [Pictilisib] (partner 1 µM); conditions: main component drawn
In short: as §1

Bleomycin + Decitabine = compound: CC1=C(N=C(N=C1N)[C@H](CC(=O)N)NC[C@@H](C(=O)N)N)C(=O)N[C@@H]([C@H](C2=CN=CN2)OC3C(C(C(C(O3)CO)O)O)OC4C(C(C(C(O4)CO)O)OC(=O)N)O)C(=O)N[C@H](C)[C@H]([C@H](C)C(=O)N[C@@H]([C@@H](C)O)C(=O)NCCC5=NC(=CS5)C6=NC(=CS6)C(=O)NCCC[S+](C)C)O [Bleomycin] + Nc1ncn([C@H]2C[C@H](O)[C@@H](CO)O2)c(=O)n1 [Decitabine] (partner 2 µM); conditions: main component drawn
In short: as §1

Etoposide + Trametinib = compound: COc1cc([C@@H]2c3cc4c(cc3[C@@H](O[C@@H]3O[C@@H]5CO[C@@H](C)O[C@H]5[C@H](O)[C@H]3O)[C@H]3COC(=O)[C@H]23)OCO4)cc(OC)c1O [Etoposide] + CC(=O)Nc1cccc(-n2c(=O)n(C3CC3)c(=O)c3c(Nc4ccc(I)cc4F)n(C)c(=O)c(C)c32)c1 [Trametinib] (partner 0.02 µM)
In short: as §1

Cell Line	relative viability (Etoposide + AZD7762; first compound 0.01 µM)	relative viability (Etoposide + AZD7762; first compound 0.03162 µM)	relative viability (Etoposide + AZD7762; first compound 0.1 µM)	relative viability (Etoposide + AZD7762; first compound 0.3162 µM)	relative viability (Etoposide + AZD7762; first compound 1 µM)	relative viability (Bleomycin + Pictilisib; first compound 0.01 µM)	relative viability (Bleomycin + Pictilisib; first compound 0.03162 µM)	relative viability (Bleomycin + Pictilisib; first compound 0.1 µM)	relative viability (Bleomycin + Pictilisib; first compound 0.3162 µM)	relative viability (Bleomycin + Pictilisib; first compound 1 µM)	relative viability (Bleomycin + Decitabine; first compound 0.01 µM)	relative viability (Bleomycin + Decitabine; first compound 0.03162 µM)	relative viability (Bleomycin + Decitabine; first compound 0.1 µM)	relative viability (Bleomycin + Decitabine; first compound 0.3162 µM)	relative viability (Bleomycin + Decitabine; first compound 1 µM)	relative viability (Etoposide + Trametinib; first compound 0.01 µM)	relative viability (Etoposide + Trametinib; first compound 0.03162 µM)	relative viability (Etoposide + Trametinib; first compound 0.1 µM)	relative viability (Etoposide + Trametinib; first compound 0.3162 µM)	relative viability (Etoposide + Trametinib; first compound 1 µM)
HOP-62	0.486	0.634	0.284	0.329	0.24	0.427	0.31	0.389	0.115	0.103	0.157	0.197	0.137	0.154	0.118	0.348	0.395	0.325	0.343	0.316
LC-2-ad	0.762	0.882	0.853	0.741	0.571	0.255	0.368	0.292	0.173	0.106	0.72	0.737	0.541	0.309	0.292	0.884	0.902	0.988	0.743	0.689
LCLC-97TM1	0.226	0.323	0.173	0.15	0.099	0.141	0.119	0.141	0.0993	0.0953	0.2	0.156	0.168	0.158	0.0988	0.22	0.218	0.174	0.126	0.115
LCLC-103H	0.756	0.787	0.597	0.742	0.608	0.638	0.573	0.54	0.34	0.255	0.676	0.68	0.677	0.721	0.537	0.607	0.748	0.742	0.64	0.582
LK-2	0.395	0.659	0.255	0.319	0.2	0.517	0.489	0.437	0.287	0.278	0.22	0.241	0.184	0.121	0.142	0.688	0.861	0.498	0.438	0.2
LOU-NH91	0.784	0.836	0.67	0.656	0.482	0.53	0.493	0.432	0.392	0.325	0.624	0.611	0.472	0.38	0.406	0.731	0.817	0.659	0.758	0.552
LU99A	0.424	0.351	0.17	0.175	0.117	0.249	0.233	0.191	0.152	0.137	0.77	0.809	0.64	0.448	0.211	0.493	0.672	0.391	0.312	0.206
LXF-289	1.07	1.1	1.23	0.892	0.4	0.713	0.799	0.685	0.358	0.15	0.381	0.407	0.406	0.24	0.161	0.742	0.705	0.71	0.531	0.2
NCI-H23	0.246	0.307	0.187	0.195	0.172	0.262	0.348	0.263	0.169	0.153	0.307	0.265	0.235	0.184	0.177	0.299	0.342	0.309	0.265	0.24
NCI-H322M	0.473	0.562	0.47	0.502	0.473	0.49	0.493	0.491	0.4	0.421	0.809	0.612	0.635	0.659	0.48	0.531	0.564	0.469	0.457	0.47
NCI-H358	0.512	0.527	0.332	0.288	0.266	0.349	0.355	0.34	0.233	0.228	0.198	0.271	0.189	0.172	0.152	0.141	0.122	0.119	0.118	0.0938
NCI-H441	1.31	0.966	1.1	0.512	0.4		0.439	0.482	0.316	0.267	0.233	0.238	0.221	0.217	0.224	0.481	0.455	0.394	0.26	0.141
NCI-H460	0.61	0.704	0.407	0.0776	0.0538	0.307	0.285	0.244	0.0358	0.1	0.301	0.228	0.279	0.0468	0.0408	0.173	0.14	0.0869	0.0497	0.021
NCI-H596	0.923	1.21	0.662	1.3	0.705	0.379	0.419	0.329	0.268	0.261	1	0.83	0.55	0.495	0.509	0.7	0.965	0.772	0.727	0.646
NCI-H647	0.417	0.323	0.307	0.165	0.0849	0.251	0.254	0.191	0.105	0.0791	0.289	0.183	0.152	0.0939	0.0806	0.309	0.546	0.351	0.405	0.134
NCI-H650	0.859	0.977	0.563	0.538	0.207	0.628	0.764	0.728	0.483	0.25	0.305	0.318	0.299	0.2	0.175	0.884	0.951	0.681	0.527	0.195
NCI-H727	0.647	0.582	0.405	0.527	0.579	0.375	0.299	0.268	0.239	0.357	0.938	0.686	0.893	0.459	0.776	0.395	0.43	0.378	0.338	0.355
NCI-H838	0.884	0.857	0.805	0.787	0.722	0.414	0.28	0.18	0.156	0.202	0.398	0.369	0.297	0.228	0.478	0.463	0.502	0.378	0.406	0.253
NCI-H1355	0.746	0.862	0.501	0.586	0.305	0.425	0.458	0.358	0.214	0.214	0.319	0.341	0.371	0.314	0.2	0.396	0.478	0.27	0.384	0.256
NCI-H1395	0.423	0.435	0.4	0.375	0.362	0.579	0.6	0.476	0.686	0.489	0.563	0.593	0.513	0.394	0.305	0.962	1.15	0.839	1.01	0.808
NCI-H1437	1.03	1.11	1.14	1.07	0.722	0.47	0.407	0.24	0.146	0.224	0.472	0.527	0.518	0.428	0.377	0.417	0.551	0.361	0.412	0.298
NCI-H1651	0.476	0.508	0.287	0.274	0.186	0.576	0.517	0.44	0.249	0.153	0.619	0.461	0.477	0.333	0.192	0.774	0.783	0.558	0.362	0.165
NCI-H1666	0.852	0.99	0.814	0.583	0.532	0.428	0.375	0.391	0.183	0.256	0.699	0.56	0.505	0.442	0.388	0.818	0.89	0.809	0.526	0.508
NCI-H1734	0.561	0.538	0.333	0.306	0.19	0.382	0.411	0.357	0.267	0.22	0.453	0.477	0.414	0.272	0.2	0.655	0.74	0.499	0.461	0.452
NCI-H1755	0.45	0.487	0.407	0.403	0.52	0.429	0.498	0.385	0.282	0.247	0.667	0.706	0.651	0.561	0.506	0.751	0.787	0.692	0.723	0.546
NCI-H1792	0.485	0.661		0.471	0.122	0.301	0.231	0.217	0.102	0.122	0.521	0.649	0.558	0.3	0.252	0.47	0.5		0.371	0.335
NCI-H1793		0.548	0.282	0.474	0.196	0.398	0.314	0.312	0.233	0.169	0.483	0.472	0.37	0.175	0.246		0.484	0.357	0.352	0.293
NCI-H1915	0.66	0.777	0.697	0.648	0.527	0.575	0.65	0.535	0.247	0.146	0.259	0.237	0.238	0.193	0.141	0.275	0.343	0.253	0.262	0.282
NCI-H1944	0.577	0.639	0.276	0.377	0.235	0.284	0.282	0.271	0.204	0.184	0.365	0.321	0.275	0.252	0.159	0.435	0.46	0.297	0.255	0.175
